The structures appear in SMILES notation.

This note sets out measurements from US9044016B2, “N-thio-anthranilamide compounds and their use as pesticides” (BASF SE, priority 2011, dated 2015).

Holding throughout (assay type): in vivo
Assay [1] deals with Western Corn Rootworm (Diabrotica virgifera virgifera). As to the kind of experiment: CE.2 Western corn rootworm assay, treated soil. Particulars: second-instar larvae, 3 days after infestation. On the procedure:
(§1) The activity summarized in the tables hereinbelow are given as percentage of mortality in comparison with untreated control
The active compound was applied in acetone at rates of 5 and 50 ppm a.i./soil (w/w). Treatments were applied in solution to sifted, North Carolina loamy sand (Sandhill soil) in a plastic bag. Treatments were thoroughly incorporated by sealing and shaking each bag by hand and allowing the solution to soak through the soil mass for at least 10 minutes before unsealing. The bags were then kept open in a fume hood overnight to evaporate the solvent from the soil.
One day after treatment (DAT) distilled water for moisture and water-soaked millet seed (Panicum miliaceum ‘white millet’) as a food source were added to each bag and mixed in thoroughly. 11 cm^3 of millet and soil mixture were dispensed into a 1 oz. plastic cup. Each cup was infested with 10 western corn rootworm second-instar larvae. Each cup or group of four cells was a replicate, and replication was 3×. The test was maintained in incubators at 26° C. in the dark. Mortality was evaluated 3 days after infestation (DAI) and mean percent mortality was calculated.

Assay [2] has as its system Boll Weevil (Anthonomus grandis). As to the kind of experiment: B.9 Boll weevil, insect diet with eggs in 96-well plates. Particulars: 120 h, egg and larval mortality, 5 days, read-out: mortality in comparison with untreated controls. The procedure: For evaluating control of boll weevil (Anthonomus grandis) the test unit consisted of 96-well-microtiter plates containing an insect diet and 5-10 A. grandis eggs.
(§2) The compounds were formulated using a solution containing 75% v/v water and 25% v/v DMSO. Different concentrations of formulated compounds were sprayed onto the insect diet at 5 μl, using a custom built micro atomizer, at two replications.
After application, microtiter plates were incubated at about 25+1° C. and about 75+5% relative humidity for 5 days. Egg and larval mortality was then visually assessed.

Assay [3] deals with Vetch Aphid (Megoura Viciae). As to the kind of experiment: B.7 Vetch aphid, broad bean leaf disks in 24-well plates. As to conditions: foliar, 120 h, sprayed leaf disks, adult aphids, 5 days, read-out: mortality in comparison with untreated controls. On the procedure: For evaluating control of vetch aphid (Megoura viciae) through contact or systemic means the test unit consisted of 24-well-microtiter plates containing broad bean leaf disks.
The compounds were formulated using a solution containing 75% v/v water and 25% v/v DMSO. Different concentrations of formulated compounds were sprayed onto the leaf disks at 2.5 μl, using a custom built micro atomizer, at two replications.
After application, the leaf disks were air-dried and 5 to 8 adult aphids placed on the leaf disks inside the microtiter plate wells. The aphids were then allowed to suck on the treated leaf disks and incubated at about 23+1° C. and about 50+5% relative humidity for 5 days. Aphid mortality and fecundity was then visually assessed.

The subject of assay [4] is Mediterranean Fruitfly (Ceratitis capitata). Description: B.4 Mediterranean fruitfly, insect diet with eggs in microtiter plates. Particulars: 120 h, egg and larval mortality, 5 days, read-out: mortality in comparison with untreated controls. On the procedure: (§3) For evaluating control of Mediterranean fruitfly (Ceratitis capitata) the test unit consisted of microtiter plates containing an insect diet and 50-80 C. capitata eggs.
as §2
(§4) After application, microtiter plates were incubated at about 28+1° C. and about 80+5% relative humidity for 5 days. Egg and larval mortality was then visually assessed.

Assay [5] has as its system Cowpea Aphid (Aphis craccivora). As to the kind of experiment: CE.1 Cowpea aphid, comparison with prior art compounds. As to conditions: for % activity (mortality of Cowpea aphid in %, vs. untreated control): sprayed cowpea plants, assessed after 72 hours. The procedure: as §1
The active compound was dissolved at the desired concentration in a mixture of 1:1 (vol:vol) distilled water:acetone. Surfactant (Alkamuls® EL 620) is added at a rate of 0.1% (vol/vol). The test solution was prepared at the day of use.
(§5) Potted cowpea plants were colonized with approximately 50 to 100 aphids of various stages by manually transferring a leaf tissue cut from infested plant 24 hours before application. Plants were sprayed after the pest population has been recorded. Treated plants are maintained on light carts at about 28° C. Percent mortality was assessed after 72 hours.

Assay [6] has as its system Orchid Thrips (Dichromothrips Corbetti). As to the kind of experiment: B.5 Orchid thrips, floral-immersion technique. As to conditions: dipped orchid flowers, adult thrips, 72 hours after treatment, read-out: mortality in comparison with untreated controls. On the procedure:
Dichromothrips corbetti adults used for bioassay were obtained from a colony maintained continuously under laboratory conditions. For testing purposes, the test compound is diluted in a 1:1 mixture of acetone:water (vol:vol), plus 0.01% vol/vol Alkamuls® EL 620 surfactant.
Thrips potency of each compound was evaluated by using a floral-immersion technique. Plastic petri dishes were used as test arenas. All petals of individual, intact orchid flowers were dipped into treatment solution and allowed to dry. Treated flowers were placed into individual petri dishes along with about 20 adult thrips. The petri dishes were then covered with lids. All test arenas were held under continuous light and a temperature of about 28° C. for duration of the assay. After 3 days, the numbers of live thrips were counted on each flower, and along inner walls of each petri dish. The percentmortality was recorded 72 hours after treatment.

The subject of assay [7] is Green Peach Aphid (Myzus persicae). Description: B.3 Green peach aphid, systemic, artificial diet in 96-well plates. As to conditions: 72 h, adult aphids, 3 days, read-out: mortality in comparison with untreated controls. The text has this:
For evaluating control of green peach aphid (Myzus persicae) through systemic means the test unit consisted of 96-well-microtiter plates containing liquid artificial diet under an artificial membrane.
The compounds were formulated using a solution containing 75% v/v water and 25% v/v DMSO. Different concentrations of formulated compounds were pipetted into the aphid diet, using a custom built pipetter, at two replications.
After application, 5 to 8 adult aphids were placed on the artificial membrane inside the microtiter plate wells. The aphids were then allowed to suck on the treated aphid diet and incubated at about 23+1° C. and about 50+5% relative humidity for 3 days. Aphid mortality and fecundity was then visually assessed.

Assay [8] has as its system Mediterranean Fruitfly (Ceratitis capitata). As to the kind of experiment: CE.3 Mediterranean fruitfly, comparison with prior art compounds. As to conditions: 5 days; for Mediterranean fruitfly egg and larval mortality vs. untreated control (%): sprayed onto insect diet with eggs. On the procedure:
as §1, §3, §2
After application, microtiter plates were incubated at about 28±1° C. and about 80±5% relative humidity for 5 days. Egg and larval mortality was then visually assessed.

For assay [9], the system named is Diamond Back Moth (Plutella xylostella). As to the kind of experiment: B.2 Diamond back moth, cabbage leaf dip. Particulars: foliar, dipped cabbage leaves, 3rd instar larvae, 72 hours after treatment, read-out: mortality in comparison with untreated controls. The procedure: The active compound is dissolved at the desired concentration in a mixture of 1:1 (vol:vol) distilled water:aceteone. Surfactant (Alkamuls® EL 620) is added at a rate of 0.1% (vol/vol).The test solution is prepared at the day of use.
Leaves of cabbage were dipped in test solution and air-dried. Treated leaves were placed in petri dish eslined with moist filter paper and inoculated with ten 3rd instar larvae. Mortality was recorded 72 hours after treatment. Feeding damages were also recorded using a scale of 0-100%.

The subject of assay [10] is Tobacco Budworm (Heliothis virescens). As to the kind of experiment: B.8 Tobacco budworm I, insect diet with eggs in 96-well plates. Particulars: 120 h, egg and larval mortality, 5 days, read-out: mortality in comparison with untreated controls. On the procedure:
For evaluating control of tobacco budworm (Heliothis virescens) the test unit consisted of 96-well-microtiter plates containing an insect diet and 15-25 H. virescens eggs.
The compounds were formulated using a solution containing 75% v/v water and 25% v/v DMSO. Different concentrations of formulated compounds were sprayed onto the insect diet at 10 μl, using a custom built micro atomizer, at two replications.
as §4

The subject of assay [11] is Cowpea Aphid (Aphis craccivora). Description: B.1 Cowpea aphid, sprayed potted cowpea plants. Particulars: assessed after 72 hours, read-out: mortality in comparison with untreated controls. On the procedure:
The active compound is dissolved at the desired concentration in a mixture of 1:1 (vol:vol) distilled water:acetone. Surfactant (Alkamuls® EL 620) is added at a rate of 0.1% (vol/vol). The test solution is prepared at the day of use.
as §5

As for `CCS(CC)=NC(=O)c1cc(Cl)cc(C)c1NC(=O)c1cc(C(F)(F)F)nn1-c1ncccc1Cl` [CC-2, reference compound], the “% activity (mortality of Western corn rootworm in %, vs. untreated control)” value was found to be 21% in [1] (5 ppm a.i./soil (w/w)) and 93% in assay [1] (50 ppm a.i./soil (w/w)).
`CC(C)S(=NC(=O)c1cc(Cl)cc(Cl)c1NC(=O)c1cc(C(F)(F)F)nn1-c1ncccc1Cl)C(C)C` [S.1, 2-(3-chloro-2-pyridyl)-N-[2,4-dichloro-6-[(bis-2-propyl-λ^4-sulfanylidene)carbamoyl]phenyl]-5-(trifluoromethyl)pyrazole-3-carboxamide]: the mortality (as a rule, the percentage killed) at 2500 ppm in assay [2] is above 95%; in assay [3] it was above 75%; in [4] it was above 75%; in assay [7] it was above 75%; in assay [10], above 75%. Moreover, the “% activity (mortality of Western corn rootworm in %, vs. untreated control)” value in assay [1] (5 ppm a.i./soil (w/w)) and in [1] (50 ppm a.i./soil (w/w)) was 100% throughout. Moreover, the “% activity (mortality of Cowpea aphid in %, vs. untreated control)” value in assay [5] (100 ppm active ingredient), in [5] (300 ppm active ingredient) and in [5] (500 ppm active ingredient) was 100% throughout. For the same compound, the “activity against Cowpea aphid in comparison with comparative compound CC-3” value in assay [5] (percent mortality after 72 hours) was “superior activity”. For the same compound, the mortality at 300 ppm in assay [6], in assay [9] and in [11] was above 75% in each case. The “Mediterranean fruitfly egg and larval mortality vs. untreated control (%)” value in [8] (1415 ppm active ingredient) and in [8] (2500 ppm active ingredient) was 100% each time.
For `O=C(N=S1CCCC1)c1cc(Cl)cc(Cl)c1NC(=O)c1cc(C(F)(F)F)nn1-c1ncccc1Cl` [S.3, 2-(3-chloro-2-pyridyl)-N-[2,4-dichloro-6-[(tetrahydro-λ^4-thiophenidene)carbamoyl]phenyl]-5-(trifluoromethyl)pyrazole-3-carboxamide], the “activity against Mediterranean fruitfly in comparison with comparative compound CC-1” value in [8] (egg and larval mortality) is recorded as “superior activity”.
For the compound `CCS(CC)=NC(=O)c1cc(Cl)cc(Cl)c1NC(=O)c1cc(C(F)(F)F)nn1-c1ncccc1Cl` [S.6, N-[4,6-dichloro-2-[(diethyl-λ^4-sulfanylidene)carbamoyl]-phenyl]-2-(3-chloro-2-pyridyl)-5-(trifluoromethyl)pyrazole-3-carboxamide], the mortality at 2500 ppm in assay [2] was above 95%; in assay [3], above 75%; in assay [7], above 75%; in assay [10] it was above 75%. Besides, the “% activity (mortality of Western corn rootworm in %, vs. untreated control)” value in [1] (5 ppm a.i./soil (w/w)) and in [1] (50 ppm a.i./soil (w/w)) was 100% each time. For the same compound, the mortality at 300 ppm in assay [6], in assay [9] and in [11] was above 75% in each case.
